Reference: the supplement of paper PMC10307832

Tests used:
Experiment in all cases: relative viability (nuclei count vs DMSO), 5 days (fraction); higher = more cells survive
KIN001-266 + AZD7762 = compound: CCN1CCC(CC1)N2C=C(N=N2)CNC3=CC4=C(C(=CN=C4C(=C3)Cl)C#N)NC5=CC(=C(C=C5)F)Cl [KIN001-266] + NC(=O)Nc1cc(-c2cccc(F)c2)sc1C(=O)N[C@H]1CCCNC1 [AZD7762] (partner 0.2 µM)
Procedure, shortened: (§1)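 Nuclei were stained with Hoechst during a one-step fixation (final 0.05% Triton X-100, 1% formaldehyde, 1 ug/ml Hoechst) carried out 5 days after dosing, then counted on 4× images. The cells, lung cancer lines in 1536-well plates, had been dosed by pin tool the day after seeding with one drug alone or a fixed anchor-drug dose plus five library-drug doses (not always all listed) in √10 steps. Relative viability is the nuclei count in treated wells divided by that in vehicle wells, and each value is the median of duplicate plates.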

KIN001-266 + Bortezomib = compound: CCN1CCC(CC1)N2C=C(N=N2)CNC3=CC4=C(C(=CN=C4C(=C3)Cl)C#N)NC5=CC(=C(C=C5)F)Cl [KIN001-266] + CC(C)C[C@H](NC(=O)[C@H](Cc1ccccc1)NC(=O)c1cnccn1)B(O)O [Bortezomib] (partner 0.002 µM)
Procedure, shortened: as §1

KIN001-266 + Tozasertib = compound: CCN1CCC(CC1)N2C=C(N=N2)CNC3=CC4=C(C(=CN=C4C(=C3)Cl)C#N)NC5=CC(=C(C=C5)F)Cl [KIN001-266] + Cc1cc(Nc2cc(N3CCN(C)CC3)nc(Sc3ccc(NC(=O)C4CC4)cc3)n2)n[nH]1 [Tozasertib] (partner 0.1 µM)
Procedure, shortened: as §1

KIN001-266 + Decitabine = compound: CCN1CCC(CC1)N2C=C(N=N2)CNC3=CC4=C(C(=CN=C4C(=C3)Cl)C#N)NC5=CC(=C(C=C5)F)Cl [KIN001-266] + Nc1ncn([C@H]2C[C@H](O)[C@@H](CO)O2)c(=O)n1 [Decitabine] (partner 2 µM)
Procedure, shortened: as §1

Row | Cell Line | relative viability (KIN001-266 + AZD7762; first compound 0.08 µM) | relative viability (KIN001-266 + AZD7762; first compound 0.253 µM) | relative viability (KIN001-266 + AZD7762; first compound 0.8 µM) | relative viability (KIN001-266 + AZD7762; first compound 2.53 µM) | relative viability (KIN001-266 + AZD7762; first compound 8 µM) | relative viability (KIN001-266 + Bortezomib; first compound 0.08 µM) | relative viability (KIN001-266 + Bortezomib; first compound 0.253 µM) | relative viability (KIN001-266 + Bortezomib; first compound 0.8 µM) | relative viability (KIN001-266 + Bortezomib; first compound 2.53 µM) | relative viability (KIN001-266 + Bortezomib; first compound 8 µM) | relative viability (KIN001-266 + Tozasertib; first compound 0.08 µM) | relative viability (KIN001-266 + Tozasertib; first compound 0.253 µM) | relative viability (KIN001-266 + Tozasertib; first compound 0.8 µM) | relative viability (KIN001-266 + Tozasertib; first compound 2.53 µM) | relative viability (KIN001-266 + Tozasertib; first compound 8 µM) | relative viability (KIN001-266 + Decitabine; first compound 0.08 µM) | relative viability (KIN001-266 + Decitabine; first compound 0.253 µM) | relative viability (KIN001-266 + Decitabine; first compound 0.8 µM) | relative viability (KIN001-266 + Decitabine; first compound 2.53 µM) | relative viability (KIN001-266 + Decitabine; first compound 8 µM)
1 | NCI-H1993 | 1.06 | 0.815 | 0.673 | 0.827 | 0.624 | 1.04 | 1.29 | 1.06 | 1.01 | 0.858 | 0.596 | 0.563 | 0.574 | 0.567 | 0.553 | 0.66 | 0.563 | 0.415 | 0.579 | 0.607
2 | NCI-H596 | 1.2 | 0.931 | 1.17 | 0.936 | 1.04 | 0.919 | 1.17 | 1.05 | 1.04 | 0.947 | 0.882 | 0.893 | 0.881 | 0.925 | 0.786 | 1.13 | 1.19 | 0.967 | 1.07 | 0.99
3 | HCC-827 | 0.28 | 0.224 | 0.131 | 0.215 | 0.196 | 1.09 | 1.03 | – | 1.07 | 1.09 | 0.442 | 0.432 | 0.41 | 0.359 | 0.389 | 0.327 | 0.382 | 0.153 | 0.28 | 0.268
4 | ChaGo-K-1 | 0.858 | 0.924 | 0.856 | 0.811 | 0.585 | 1.11 | 1.17 | – | 1.09 | 1.1 | 0.245 | 0.218 | 0.213 | 0.207 | 0.198 | 0.502 | 0.517 | 0.508 | 0.506 | 0.38
5 | EMC-BAC-2 | 1.17 | 1.18 | 1.15 | 1.16 | 1.21 | 1.07 | 1.11 | 1.02 | 1.04 | 1.04 | 0.307 | 0.316 | 0.292 | 0.29 | 0.281 | 1.04 | 1.04 | 0.965 | 0.984 | 0.988
6 | NCI-H23 | 0.195 | 0.249 | 0.304 | 0.22 | 0.246 | 1.14 | 1.1 | 1.04 | 0.916 | 0.642 | 0.359 | 0.381 | 0.376 | 0.41 | 0.271 | 0.332 | 0.297 | 0.311 | 0.311 | 0.256
7 | RERF-LC-KJ | 0.984 | 0.876 | 0.809 | 0.768 | 0.947 | 1.11 | 1.23 | 1.08 | 1.01 | 0.82 | 0.499 | 0.551 | 0.557 | 0.359 | 0.299 | 0.744 | 0.777 | 0.767 | 0.64 | 0.497
8 | LC-2-ad | 0.8 | 0.867 | 0.777 | 0.863 | 0.636 | 0.954 | 0.948 | 1.02 | 1.03 | 0.956 | 0.451 | 0.409 | 0.516 | 0.444 | 0.447 | 0.802 | 0.794 | 0.676 | 0.733 | 0.771
9 | HCC-15 | 1.23 | 1.14 | 1.18 | 0.6 | 1.06 | 1.01 | 1.04 | 0.868 | 0.864 | 0.662 | 0.443 | 0.358 | 0.25 | 0.24 | 0.19 | 0.679 | 0.691 | 0.539 | 0.497 | 0.488
10 | NCI-H2405 | 0.761 | 0.752 | 0.865 | 0.739 | 0.488 | 0.99 | 1 | 0.984 | 0.925 | 0.809 | 0.763 | 0.792 | 0.746 | 0.684 | 0.455 | 0.772 | 0.78 | 0.783 | 0.694 | 0.627
11 | LXF-289 | 0.996 | 1.04 | 1.09 | 1.09 | 1.19 | 0.954 | 0.987 | 0.95 | 0.972 | 1.03 | 0.186 | 0.236 | 0.172 | 0.201 | 0.189 | 0.379 | 0.365 | 0.369 | 0.34 | 0.414
12 | NCI-H1755 | 0.408 | 0.492 | 0.425 | 0.452 | 0.43 | 0.956 | 0.972 | 0.847 | 0.918 | 0.884 | 0.629 | 0.541 | 0.583 | 0.525 | 0.522 | 0.67 | 0.735 | 0.647 | 0.654 | 0.707
13 | NCI-H1437 | 1.12 | 1.16 | 1.12 | 1.1 | 0.963 | 0.534 | 0.435 | 0.514 | 0.493 | 0.447 | 0.425 | 0.366 | 0.393 | 0.38 | 0.264 | 0.564 | 0.542 | 0.556 | 0.504 | 0.567
14 | NCI-H2085 | 0.971 | 1.03 | 0.847 | 0.962 | 0.977 | 1.01 | 1.04 | 0.888 | 1.14 | 0.916 | 0.911 | 0.858 | 0.83 | 0.793 | 0.765 | 0.567 | 0.57 | 0.517 | 0.474 | 0.499
15 | H3255 | 0.846 | 0.731 | 0.792 | 0.908 | 0.8 | 0.899 | 0.775 | 0.838 | 0.788 | 0.699 | 0.699 | 0.601 | 0.502 | 0.499 | 0.512 | 0.632 | 0.557 | 0.587 | 0.618 | 0.713
16 | NCI-H650 | 1.09 | 1.17 | 1 | 1.08 | 1.23 | 0.997 | 0.844 | 0.997 | 0.771 | 0.768 | 0.791 | 0.713 | 0.74 | 0.732 | 0.672 | 0.346 | 0.337 | 0.309 | 0.319 | 0.306
17 | LCLC-103H | 0.814 | 0.843 | 0.82 | 0.791 | 0.73 | 1.18 | 1.15 | 1.08 | 1.08 | 0.986 | 0.492 | 0.494 | 0.413 | 0.52 | 0.504 | 0.702 | 0.742 | 0.636 | 0.689 | 0.706
18 | LOU-NH91 | 0.785 | 0.617 | 0.711 | 0.711 | 0.734 | 0.499 | 0.497 | 0.428 | 0.513 | 0.443 | 0.675 | 0.689 | 0.492 | 0.609 | 0.501 | 0.796 | 0.82 | 0.728 | 0.767 | 0.701
19 | NCI-H3122 | 0.937 | 1.15 | 1.08 | 0.947 | 0.956 | 0.996 | 1.03 | 1.03 | 0.969 | 0.974 | 0.428 | 0.389 | 0.389 | 0.378 | 0.37 | 0.435 | 0.472 | 0.426 | 0.442 | 0.326
20 | PC-3 [JPC-3] | 0.792 | 0.915 | 0.799 | 0.775 | 0.801 | 0.786 | 0.846 | 0.813 | 0.736 | 0.764 | 0.844 | 0.916 | 0.774 | 0.815 | 0.788 | 0.786 | 0.87 | 0.823 | 0.824 | 0.737
21 | NCI-H1651 | 0.46 | 0.44 | 0.376 | 0.328 | 0.49 | 0.98 | 0.969 | 0.869 | 0.93 | 0.897 | 0.782 | 0.591 | 0.51 | 0.78 | 0.396 | 0.629 | 0.599 | 0.546 | 0.572 | 0.634
22 | NCI-H2087 | 1.28 | 1.37 | 1.51 | 1.25 | 0.771 | 0.761 | 0.87 | 0.717 | 0.719 | 0.609 | 0.206 | 0.246 | 0.23 | 0.175 | 0.155 | 0.29 | 0.288 | 0.257 | 0.299 | 0.258
